Data reported in patent US6464991B1, “Oat lipid based surfactants and derivatives and process for preparing same” (Finetex, Inc., priority 1999, dated 2002).

How the values were obtained:
Skin Tissue Model = assay: Dermal irritation, Mat-Tek in-vitro Skin Tissue Model (non-animal); format: cell-based
Text: (§1) These studies were done using non-animal test protocols. Skin Tissue Model and Ocular Tissue Model by Mat-Tek Corporation in-vitro systems were used for dermal and ocular irritation studies.

Ocular Tissue Model = assay: Ocular irritation, Mat-Tek in-vitro Ocular Tissue Model (non-animal); format: cell-based
Text: as §1

nonylphenol 10 EO Ethoxylate [Positive Control]
Dermal Tox Irritation Ratings/Classifications (Skin Tissue Model): Moderate to mild range | Ocular Tox Irritation Ratings/Classifications (Ocular Tissue Model): Moderate to mild range
